Measurements published in publication PMC9318203, “Squaramide-Tethered Sulfonamides and Coumarins: Synthesis, Inhibition of Tumor-Associated CAs IX and XII and Docking Simulations” (International Journal of Molecular Sciences, 2022).
Several values for one entry are separate records, joined by “and”; a condition that tells them apart may be missing. Equal entries are not always repeated.

Key:
[1] = biological target: T1, hCA II (Homo sapiens, UniProt P00918); test: stopped-flow CO2 hydrase assay, hCA II; assay type: biochemical
T1 construct: made in house
Procedure: (§1) For that purpose, the stopped-flow CO2 hydration assay was used (Table 1).
(§2) The inhibitory properties of title compounds against CAs were determined using the stopped-flow CO2 hydrase assay, as previously reported.

[2] = biological target: T2, hCA IX (Homo sapiens, UniProt Q16790); test: stopped-flow CO2 hydrase assay, hCA IX; assay type: biochemical; details: for S.I. I/IX: Ki (CA I)/Ki (CA IX); for S.I. II/IX: Ki (CA II)/Ki (CA IX)
T2 construct: made in house
Procedure: as §1, §2

[3] = biological target: T3, hCA I (Homo sapiens, UniProt P00915); test: stopped-flow CO2 hydrase assay, hCA I; assay type: biochemical
T3 construct: made in house
T3 sequence (P00915 whole entry): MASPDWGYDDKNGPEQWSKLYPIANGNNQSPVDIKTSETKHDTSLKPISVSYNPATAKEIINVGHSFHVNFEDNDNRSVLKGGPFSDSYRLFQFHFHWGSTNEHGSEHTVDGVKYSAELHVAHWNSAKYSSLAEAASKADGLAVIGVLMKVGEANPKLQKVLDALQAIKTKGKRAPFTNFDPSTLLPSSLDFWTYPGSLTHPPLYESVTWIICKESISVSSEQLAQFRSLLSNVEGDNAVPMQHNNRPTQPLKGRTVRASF
Procedure: as §1, §2

[4] = biological target: T4, hCA XII (Homo sapiens, UniProt O43570); test: stopped-flow CO2 hydrase assay, hCA XII; assay type: biochemical; details: for S.I. I/XII: Ki (CA I)/Ki (CA XII); for S.I. II/XII: Ki (CA II)/Ki (CA XII)
T4 construct: made in house
T4 sequence (O43570 25-354): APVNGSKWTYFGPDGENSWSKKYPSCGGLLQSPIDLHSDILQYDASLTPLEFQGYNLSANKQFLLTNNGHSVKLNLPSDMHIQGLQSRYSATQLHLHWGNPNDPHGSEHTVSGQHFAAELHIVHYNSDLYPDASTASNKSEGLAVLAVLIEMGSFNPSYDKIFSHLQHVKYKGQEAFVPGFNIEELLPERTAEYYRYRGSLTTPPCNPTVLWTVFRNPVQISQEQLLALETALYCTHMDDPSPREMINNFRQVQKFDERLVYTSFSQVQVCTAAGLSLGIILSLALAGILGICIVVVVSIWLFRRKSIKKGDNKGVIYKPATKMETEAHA
Procedure: as §1, §2

[5] = sulfonamido-containing squaramides, mean from 3 assays, stopped flow
[6] = coumarin-containing squaramides, incubation time 6 h, mean from three assays

| SMILES | Ki [1, 5] | S.I. I/IX [2] | S.I. II/IX [2] | Ki [2, 5] | melting point | Ki [3, 5] | S.I. I/XII [4] | S.I. II/XII [4] | Ki [4, 5] | S.I. (range of the selectivity indexes) ([2]; range over I/IX, I/XII, II/IX, II/XII) | Ki [1, 6] | Ki [2, 6] | Ki [3, 6] | Ki [4, 6] | fold decreased activity compared with 16b, CA IX ([2]; vs 16b) | fold decreased activity compared with 16b, CA XII ([4]; vs 16b) |
| --- | --- | --- | --- | --- | --- | --- | --- | --- | --- | --- | --- | --- | --- | --- | --- | --- |
| NS(=O)(=O)c1ccc(CCNc2c(Nc3ccccc3)c(=O)c2=O)cc1 [Compound 5a, 3-Phenylamino-4-[2′-(4″-sulfonamidophenyl)ethylamino]cyclobut-3-ene-1,2-dione] | 720 nM | 2.8 | 9.6 | 75.3 nM | > 250 °C | 211 nM | 2.2 | 7.4 | 96.8 nM |  |  |  |  |  |  |  |
| COc1ccc(Nc2c(NCCc3ccc(S(N)(=O)=O)cc3)c(=O)c2=O)cc1 [Compound 5b, 3-(p-Methoxyphenyl)amino-4-[2′-(4″-sulfonamidophenyl)ethylamino]cyclobut-3-ene-1,2-dione] | 724 nM | 4.0 | 7.8 | 92.5 nM | > 250 °C | 373 nM | 2.4 | 4.6 | 158 nM |  |  |  |  |  |  |  |
| NS(=O)(=O)c1ccc(CCNc2c(Nc3ccc(Cl)cc3)c(=O)c2=O)cc1 [Compound 5c, 3-(p-Chlorophenyl)amino-4-[2′-(4″-sulfonamidophenyl)ethylamino]cyclobut-3-ene-1,2-dione] | 819 nM | 1.8 | 1.7 | 490 nM | > 250 °C | 881 nM | 9.8 | 9.1 | 90.2 nM |  |  |  |  |  |  |  |
| NS(=O)(=O)c1ccc(CCNc2c(Nc3ccc(Br)cc3)c(=O)c2=O)cc1 [Compound 5d, 3-(p-Bromophenyl)amino-4-[2′-(4″-sulfonamidophenyl)ethylamino]cyclobut-3-ene-1,2-dione] | 910 nM | 6.8 | 14 | 67.6 nM | > 250 °C | 457 nM | 5.3 | 11 | 85.5 nM | 6.8–14 |  |  |  |  |  |  |
| NS(=O)(=O)c1ccc(CCNc2c(Nc3ccc(I)cc3)c(=O)c2=O)cc1 [Compound 5e, 3-(p-Iodophenyl)amino-4-[2′-(4″-sulfonamidophenyl)ethylamino]cyclobut-3-ene-1,2-dione] | 856 nM | 5.1 | 9.2 | 92.7 nM | > 250 °C | 471 nM | 5.2 | 9.5 | 90.3 nM |  |  |  |  |  |  |  |
| NS(=O)(=O)c1ccc(Nc2c(Nc3ccccc3)c(=O)c2=O)cc1 [Compound 8, 3-Phenylamino-4-[4′-(sulfonamidophenyl)]aminocyclobut-3-ene-1,2-dione] | 65.9 nM | 5.0 | 3.4 | 19.5 nM | > 250 °C | 98 nM | 15 | 10 | 6.57 nM |  |  |  |  |  |  |  |
| COc1c(Nc2cccc(S(N)(=O)=O)c2)c(=O)c1=O [Compound 10, 3-Methoxy-4-[3′-(sulfonamidophenyl)]aminocyclobut-3-ene-1,2-dione] | 40.9 nM | 3.0 | 1.6 | 26.2 nM |  | 79.9 nM | 14 | 7.1 | 5.78 nM |  |  |  |  |  |  |  |
| NS(=O)(=O)c1cccc(Nc2c(Nc3ccccc3)c(=O)c2=O)c1 [Compound 11] | 95.5 nM | 20 | 3.2 | 29.4 nM |  | 580 nM | 63 | 10 | 9.5 nM and 9.15 nM |  |  |  |  |  |  |  |

Continued, values first:

| Ki [1, 5] | S.I. I/IX [2] | S.I. II/IX [2] | Ki [2, 5] | melting point | Ki [3, 5] | S.I. I/XII [4] | S.I. II/XII [4] | Ki [4, 5] | S.I. (range of the selectivity indexes) ([2]; range over I/IX, I/XII, II/IX, II/XII) | Ki [1, 6] | Ki [2, 6] | Ki [3, 6] | Ki [4, 6] | fold decreased activity compared with 16b, CA IX ([2]; vs 16b) | fold decreased activity compared with 16b, CA XII ([4]; vs 16b) | SMILES |
| --- | --- | --- | --- | --- | --- | --- | --- | --- | --- | --- | --- | --- | --- | --- | --- | --- |
|  |  |  |  | > 250 °C |  |  |  |  |  | > 10000 nM | 79.3 nM | > 10000 nM | 42.1 nM |  |  | Cc1cc(=O)oc2cc(OCCCNc3c(Nc4ccccc4)c(=O)c3=O)ccc12 [Compound 16a, 3-{[3′-((4″-Methyl-2″-oxo-2″H-chromen-7″-yl)oxy)propyl]amino}-4-phenylaminocyclobut-3-ene-1,2-dione] |
|  |  |  |  | 200 to 201 °C |  |  |  |  |  | > 10000 nM | 19.2 nM | > 10000 nM | 7.23 nM |  |  | Cc1cc(=O)oc2cc(OCCCCCCCCCNc3c(Nc4ccccc4)c(=O)c3=O)ccc12 [Compound 16c, 3-{[9′-((4″-Methyl-2″-oxo-2″H-chromen-7″-yl)oxy)nonyl]amino}-4-phenylaminocyclobut-3-ene-1,2-dione] |
|  |  |  |  | 178 to 179 °C |  |  |  |  |  | > 10000 nM | 18.1 nM | > 10000 nM | 7.91 nM |  |  | Cc1cc(=O)oc2cc(OCCCCCCCCCCCCNc3c(Nc4ccccc4)c(=O)c3=O)ccc12 [Compound 16d, 3-{[12′-((4″-Methyl-2″-oxo-2″H-chromen-7″-yl)oxy)dodecyl]amino}-4-phenylaminocyclobut-3-ene-1,2-dione] |
|  |  |  |  | 225 to 227 °C |  |  |  |  |  | > 10000 nM | 65.3 nM | > 10000 nM | 24.4 nM |  |  | Cc1cc(=O)oc2cc(OCCCCCNc3c(Nc4ccc(Cl)cc4)c(=O)c3=O)ccc12 [Compound 16g, 3-[(4′-Chlorophenyl)amino]-4-{[5″-(4‴-methyl-2‴-oxo-2‴H-chromen-7‴-yl)oxypentyl]amino}cyclobut-3-ene-1,2-dione] |
|  |  |  |  | 248 to 249 °C |  |  |  |  |  | > 10000 nM | 46.2 nM | > 10000 nM | 13.9 nM |  |  | Cc1cc(=O)oc2cc(OCCCCCNc3c(Nc4ccc(Br)cc4)c(=O)c3=O)ccc12 [Compound 16h, 3-[(4′-Bromophenyl)amino]-4-{[5″-(4‴-methyl-2‴-oxo-2‴H-chromen-7‴-yl)oxypentyl]amino}cyclobut-3-ene-1,2-dione] |
|  |  |  |  | > 250 °C |  |  |  |  |  | > 10000 nM | 57 nM | > 10000 nM | 21.5 nM |  |  | Cc1cc(=O)oc2cc(OCCCCCNc3c(Nc4ccc(I)cc4)c(=O)c3=O)ccc12 [Compound 16i, 3-[(4′-Iodophenyl)amino]-4-{[5″-(4‴-methyl-2‴-oxo-2‴H-chromen-7‴-yl)oxypentyl]amino}cyclobut-3-ene-1,2-dione] |
|  |  |  |  | > 250 °C |  |  |  |  |  | > 10000 nM | 107 nM | > 10000 nM | 58.3 nM |  |  | Cc1c(C)c2ccc(OCCCCCNc3c(Nc4ccccc4)c(=O)c3=O)cc2oc1=O [Compound 16j, 3-{[5′-((3″,4″-Dimethyl-2″-oxo-2″H-chromen-7″-yl)oxy)pentyl]amino}-4-phenylaminocyclobut-3-ene-1,2-dione] |
|  |  |  |  | > 250 °C |  |  |  |  |  | > 10000 nM | 86.5 nM | > 10000 nM | 45.4 nM |  |  | COc1ccc(Nc2c(NCCCCCOc3ccc4c(C)c(C)c(=O)oc4c3)c(=O)c2=O)cc1 [Compound 16k, 3-{[5′-(3″,4″-Dimethyl-2″-oxo-2″H-chromen-7″-yl)oxypentyl]amino}-4-(4‴-methoxyphenylamino)cyclobut-3-ene-1,2-dione] |
|  |  |  |  | > 250 °C |  |  |  |  |  | > 10000 nM | 113 nM | > 10000 nM | 62.9 nM |  |  | Cc1c(C)c2ccc(OCCCCCNc3c(Nc4ccc(F)cc4)c(=O)c3=O)cc2oc1=O [Compound 16l, 3-{[5′-(3″,4″-Dimethyl-2″-oxo-2″H-chromen-7″-yl)oxypentyl]amino}-4-(4‴-fluorophenylamino)cyclobut-3-ene-1,2-dione] |
|  |  |  |  | > 250 °C |  |  |  |  |  | > 10000 nM | 96.6 nM | > 10000 nM | 43 nM |  |  | Cc1c(C)c2ccc(OCCCCCNc3c(Nc4ccc(Cl)cc4)c(=O)c3=O)cc2oc1=O [Compound 16m, 3-[(4′-Chlorophenyl)amino]-4-{[5″-(3‴,4‴-dimethyl-2‴-oxo-2‴H-chromen-7‴-yl)oxypentyl]amino}cyclobut-3-ene-1,2-dione] |
|  |  |  |  |  |  |  |  |  |  | > 10000 nM | 132 nM | > 10000 nM | 69.6 nM |  |  | Cc1c(C)c2ccc(OCCCCCNc3c(Nc4ccc(Br)cc4)c(=O)c3=O)cc2oc1=O [Compound 16n, 3-[(4′-Bromophenyl)amino]-4-{[5″-(3‴,4‴-dimethyl-2‴-oxo-2‴H-chromen-7″-yl)oxypentyl]amino}cyclobut-3-ene-1,2-dione] |
|  |  |  |  | > 250 °C |  |  |  |  |  | > 10000 nM | 92.1 nM | > 10000 nM | 50.8 nM |  |  | Cc1c(C)c2ccc(OCCCCCNc3c(Nc4ccc(I)cc4)c(=O)c3=O)cc2oc1=O [Compound 16o, 3-{[5′-(3″,4″-Dimethyl-2″-oxo-2″H-chromen-7″-yl)oxypentyl]amino}-4-(4‴-iodophenylamino)cyclobut-3-ene-1,2-dione] |
|  |  |  |  | 209 to 210 °C |  |  |  |  |  | > 10000 nM | 267 nM | > 10000 nM | 87.9 nM | roughly 6.1 fold | roughly 6.1 fold | O=c1cc(-c2ccccc2)c2ccc(OCCCCCNc3c(Nc4ccccc4)c(=O)c3=O)cc2o1 [Compound 16p, 3-Phenylamino-4-{[5′-(4″-Phenyl-2″-oxo-2″H-chromen-7″-yl)oxypentyl]amino}cyclobut-3-ene-1,2-dione] |
